The compounds below were run against T1, EZH2 (Homo sapiens, UniProt Q15910) (assay: EZH2 methyltransferase SPA assay (3H-SAM, Hela nucleosomes)). Conditions: not given.
T1 construct: GRITS37108
Type: biochemical

T1 sequence (Q15910 whole entry): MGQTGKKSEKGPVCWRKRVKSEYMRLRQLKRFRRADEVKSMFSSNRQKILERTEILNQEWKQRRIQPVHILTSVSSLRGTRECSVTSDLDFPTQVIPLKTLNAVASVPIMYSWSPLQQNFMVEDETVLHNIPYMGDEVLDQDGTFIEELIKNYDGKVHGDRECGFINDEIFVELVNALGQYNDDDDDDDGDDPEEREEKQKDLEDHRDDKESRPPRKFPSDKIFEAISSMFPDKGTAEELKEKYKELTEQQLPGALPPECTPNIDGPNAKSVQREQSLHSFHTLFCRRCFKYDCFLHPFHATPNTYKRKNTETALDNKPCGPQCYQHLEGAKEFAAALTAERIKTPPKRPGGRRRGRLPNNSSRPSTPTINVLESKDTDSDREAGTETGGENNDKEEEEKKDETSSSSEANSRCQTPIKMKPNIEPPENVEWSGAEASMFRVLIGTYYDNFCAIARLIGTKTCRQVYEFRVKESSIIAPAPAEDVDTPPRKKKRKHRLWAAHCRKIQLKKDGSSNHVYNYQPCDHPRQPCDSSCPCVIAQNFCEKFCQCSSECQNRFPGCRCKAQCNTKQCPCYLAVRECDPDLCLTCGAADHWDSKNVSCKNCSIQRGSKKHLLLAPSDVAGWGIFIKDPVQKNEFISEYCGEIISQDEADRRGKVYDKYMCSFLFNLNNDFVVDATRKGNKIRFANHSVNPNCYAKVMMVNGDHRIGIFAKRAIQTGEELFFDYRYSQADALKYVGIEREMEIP
T1 sequence (O75530 whole entry partner): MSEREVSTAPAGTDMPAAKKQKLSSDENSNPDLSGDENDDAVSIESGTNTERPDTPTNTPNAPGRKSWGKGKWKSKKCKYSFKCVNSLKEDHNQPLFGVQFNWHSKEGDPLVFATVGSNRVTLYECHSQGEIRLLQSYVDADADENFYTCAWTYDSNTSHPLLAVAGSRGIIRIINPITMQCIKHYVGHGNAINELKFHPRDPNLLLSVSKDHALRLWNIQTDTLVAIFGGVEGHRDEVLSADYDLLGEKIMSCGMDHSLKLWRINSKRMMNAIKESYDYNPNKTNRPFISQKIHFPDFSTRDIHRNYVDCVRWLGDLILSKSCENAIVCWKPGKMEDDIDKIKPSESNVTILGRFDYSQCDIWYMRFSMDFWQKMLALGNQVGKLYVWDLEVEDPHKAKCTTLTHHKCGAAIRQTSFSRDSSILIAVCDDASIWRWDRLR
T1 sequence (Q15022 whole entry partner): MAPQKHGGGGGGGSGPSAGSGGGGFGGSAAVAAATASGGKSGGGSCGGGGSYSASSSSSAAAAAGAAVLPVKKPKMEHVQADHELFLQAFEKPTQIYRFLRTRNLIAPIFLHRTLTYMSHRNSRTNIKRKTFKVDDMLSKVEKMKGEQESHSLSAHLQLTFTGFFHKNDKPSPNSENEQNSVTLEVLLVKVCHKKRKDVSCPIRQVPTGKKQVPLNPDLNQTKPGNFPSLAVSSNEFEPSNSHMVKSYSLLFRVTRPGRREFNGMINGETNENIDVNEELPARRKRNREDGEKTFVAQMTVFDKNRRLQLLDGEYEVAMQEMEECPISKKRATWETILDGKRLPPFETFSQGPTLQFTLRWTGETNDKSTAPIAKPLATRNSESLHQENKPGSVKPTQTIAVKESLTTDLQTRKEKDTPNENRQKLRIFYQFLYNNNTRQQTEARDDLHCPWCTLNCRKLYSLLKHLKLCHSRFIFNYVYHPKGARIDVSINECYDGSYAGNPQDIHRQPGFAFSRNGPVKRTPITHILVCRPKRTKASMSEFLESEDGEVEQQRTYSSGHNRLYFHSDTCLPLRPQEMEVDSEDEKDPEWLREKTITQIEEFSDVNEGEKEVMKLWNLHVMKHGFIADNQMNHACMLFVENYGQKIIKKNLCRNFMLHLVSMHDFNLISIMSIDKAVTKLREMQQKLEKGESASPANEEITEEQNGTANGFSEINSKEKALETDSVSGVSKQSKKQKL

SMILES	IC50 [µM]
Cc1[nH]c(=O)c(CNC(=O)c2cc(-c3ccncc3)nc3c2cnn3C(C)C)c(C)c1F [Ex 20, N-[(5-Fluoro-4,6-dimethyl-2-oxo-1,2-dihydro-3-pyridinyl)methyl]-1-(1-methylethyl)-6-(4-pyridinyl]-1H-pyrazolo[3,4-b]pyridine-4-carboxamide]	4.65

Same assay, conditions: read-out: IC50

SMILES	IC50 [µM]
CCCc1cc(C(=O)NCc2c(C)cc(C)[nH]c2=O)c2cnn(C(C)C)c2n1 [Ex 125, N-[(4,6-Dimethyl-2-oxo-1,2-dihydro-3-pyridinyl)methyl]-1-(1-methylethyl)-6-propyl-1H-pyrazolo[3,4-b]pyridine-4-carboxamide]	2.16
COc1cc(-c2cc(C(=O)NCc3c(C)cc(C)[nH]c3=O)c3cnn(C(C)C)c3n2)ccn1 [Ex 59, N-[(4,6-Dimethyl-2-oxo-1,2-dihydro-3-pyridinyl)methyl]-1-(1-methylethyl)-6-[2-(methyloxy)-4-pyridinyl]-1H-pyrazolo[3,4-b]pyridine-4-carboxamide]	0.155
Cc1cc(C(F)(F)F)c(CNC(=O)c2cc(C3CC3)nc3c2cnn3C(C)C)c(=O)[nH]1 [Ex 23, 6-Cyclopropyl-1-(1-methylethyl)-N-{[6-methyl-2-oxo-4-(trifluoromethyl)-1,2-dihydro-3-pyridinyl]methyl}-1H-pyrazolo[3,4-b]pyridine-4-carboxamide]	1.43
CNS(=O)(=O)c1ccc(-c2cc(C(=O)NCc3c(C)cc(C)[nH]c3=O)c3cnn(C(C)C)c3n2)cn1 [Ex 97, N-[(4,6-Dimethyl-2-oxo-1,2-dihydro-3-pyridinyl)methyl]-6-{6-[(methylamino)sulfonyl]-3-pyridinyl}-1-(1-methylethyl)-1H-pyrazolo[3,4-b]pyridine-4-carboxamide]	0.055
Cc1cc(C)c(CNC(=O)c2cc(C#CC(C)(C)O)nc3c2cnn3C(C)C)c(=O)[nH]1 [Ex 29, N-[(4,6-Dimethyl-2-oxo-1,2-dihydro-3-pyridinyl)methyl]-6-(3-hydroxy-3-methyl-1-butyn-1-yl)-1-(1-methylethyl)-1H-pyrazolo[3,4-b]pyridine-4-carboxamide]	0.234
Cc1cc(C)c(CNC(=O)c2cc(C3CC3)nc3c2c(C)nn3C2CCOCC2)c(=O)[nH]1 [Ex 112, 6-Cyclopropyl-N-[(4,6-dimethyl-2-oxo-1,2-dihydro-3-pyridinyl)methyl]-3-methyl-1-(tetrahydro-2H-pyran-4-yl)-1H-pyrazolo[3,4-b]pyridine-4-carboxamide]	0.693
CCCc1cc(C)c(CNC(=O)c2cc(-c3ccncc3)nc3c2cnn3C(C)C)c(=O)[nH]1 [Ex 9, 1-(1-Methylethyl)-N-[(4-methyl-2-oxo-6-propyl-1,2-dihydro-3-pyridinyl)methyl]-6-(4-pyridinyl)-1H-pyrazolo[3,4-b]pyridine-4-carboxamide]	1.31
Cc1cc(C)c(CNC(=O)c2cc(-c3ccc(NS(C)(=O)=O)cc3)nc3c2cnn3C(C)C)c(=O)[nH]1 [Ex 51, N-[(4,6-Dimethyl-2-oxo-1,2-dihydro-3-pyridinyl)methyl]-1-(1-methylethyl)-6-{4-[(methylsulfonyl]amino]phenyl}-1H-pyrazolo[3,4-b]pyridine-4-carboxamide]	0.161
Cc1cc(C)c(CNC(=O)c2cc(C3CC3)nc3c2cnn3CCNS(C)(=O)=O)c(=O)[nH]1 [Ex 99, 6-Cyclopropyl-N-[(4,6-dimethyl-2-oxo-1,2-dihydro-3-pyridinyl)methyl]-1-{2-[(methylsulfonyl)amino]ethyl}-1H-pyrazolo[3,4-b]pyridine-4-carboxamide]	25
Cc1cc(C)c(CNC(=O)c2cc(-c3ccnc(N4CCOCC4)c3)nc3c2cnn3C(C)C)c(=O)[nH]1 [Ex 66, N-[(4,6-Dimethyl-2-oxo-1,2-dihydro-3-pyridinyl)methyl]-1-(1-methylethyl)-6-[2-(4-morpholinyl)-4-pyridinyl]-1H-pyrazolo[3,4-b]pyridine-4-carboxamide]	0.081
Cc1cc(C)c(CNC(=O)c2cc(Cl)nc3c2cnn3C(C)C)c(=O)[nH]1 [Ex 1, 6-Chloro-N-[(4,6-dimethyl-2-oxo-1,2-dihydro-3-pyridinyl)methyl]-1-(1-methylethyl)-1H-pyrazolo[3,4-b]pyridine-4-carboxamide]	0.475
Cc1cc(C)c(CNC(=O)c2cc(-c3ccc4[nH]c(=O)[nH]c4c3)nc3c2c(C)nn3C(C)(C)C)c(=O)[nH]1 [Ex 88, 1-(1,1-Dimethylethyl)-N-[(4,6-dimethyl-2-oxo-1,2-dihydro-3-pyridinyl)methyl]-3-methyl-6-(2-oxo-2,3-dihydro-1H-benzimidazol-5-yl)-1H-pyrazolo[3,4-b]pyridine-4-carboxamide]	0.052
Cc1cc(C)c(CNC(=O)c2cc(-c3ccc(N4CCN(C)CC4)nc3)nc3c2c(C)nn3C(C)C)c(=O)[nH]1 [Ex 27, N-[(4,6-Dimethyl-2-oxo-1,2-dihydro-3-pyridinyl)methyl]-3-methyl-1-(1-methylethyl)-6-[6-(4-methyl-1-piperazinyl)-3-pyridinyl]-1H-pyrazolo[3,4-b]pyridine-4-carboxamide]	0.024
COc1cncc(-c2cc(C(=O)NCc3c(C)cc(C)[nH]c3=O)c3cnn(C(C)C)c3n2)c1 [Ex 58, N-[(4,6-Dimethyl-2-oxo-1,2-dihydro-3-pyridinyl)methyl]-1-(1-methylethyl)-6-[5-(methyloxy)-3-pyridinyl]-1H-pyrazolo[3,4-b]pyridine-4-carboxamide]	0.078
Cc1cc(C)c(CNC(=O)c2cc(-c3cccnc3)nc3c2cnn3C(C)C)c(=O)[nH]1 [Ex 73, N-[(4,6-Dimethyl-2-oxo-1,2-dihydro-3-pyridinyl)methyl]-1-(1-methylethyl)-6-(3-pyridinyl)-1H-pyrazolo[3,4-b]pyridine-4-carboxamide]	0.533
Cc1cc(C)c(CNC(=O)c2cc(NCCO)nc3c2cnn3C(C)C)c(=O)[nH]1 [Ex 57, N-[(4,6-Dimethyl-2-oxo-1,2-dihydro-3-pyridinyl)methyl]-6-[(2-hydroxyethyl)amino]-1-(1-methylethyl)-1H-pyrazolo[3,4-b]pyridine-4-carboxamide]	0.784
Cc1cc(C)c(CNC(=O)c2cc(-c3c[nH]c(=O)[nH]c3=O)nc3c2cnn3C(C)C)c(=O)[nH]1 [Ex 48, N-[(4,6-Dimethyl-2-oxo-1,2-dihydro-3-pyridinyl)methyl]-6-(2,4-dioxo-1,2,3,4-tetrahydro-5-pyrimidinyl)-1-(1-methylethyl)-1H-pyrazolo[3,4-b]pyridine-4-carboxamide]	0.198
COc1ncc(-c2cc(C(=O)NCc3c(C)cc(C)[nH]c3=O)c3cnn(C(C)C)c3n2)cc1NS(=O)(=O)C1CC1 [Ex 64, 6-[5-[(Cyclopropylsulfonyl)amino]-6-(methyloxy)-3-pyridinyl]-N-[(4,6-dimethyl-2-oxo-1,2-dihydro-3-pyridinyl)methyl]-1-(1-methylethyl)-1H-pyrazolo[3,4-b]pyridine-4-carboxamide]	0.079
Cc1cc(C2CC2)[nH]c(=O)c1CNC(=O)c1cc(C2CC2)nc2c1cnn2C(C)C [Ex 19, 6-Cyclopropyl-N-[(6-cyclopropyl-4-methyl-2-oxo-1,2-dihydro-3-pyridinyl)methyl]-1-(1-methylethyl)-1H-pyrazolo[3,4-b]pyridine-4-carboxamide]	3.37

From patent US8637509B2, “Azaindazoles” (GlaxoSmithKline LLC, priority 2010, dated 2014)
